Test results taken from article PMC5218480 (PLoS ONE, 2017).

System: MV-4-11 cells
Assay: Gene expression microarray analysis (Affymetrix PrimeView) and GSEA
Type: cell-based, human
Set-up: RFU PODN (11730768_x_at) / Fold change /veh PODN (11730768_x_at) / RFU LINC00158 (11744669_a_at) / Fold change /veh LINC00158 (11744669_a_at) / RFU DUSP10 (11751237_a_at) / Fold change /veh DUSP10 (11751237_a_at) / RFU ID3 (11757404_x_at) / Fold change /veh ID3 (11757404_x_at) / RFU PLEKHG5 (11737974_s_at) / Fold change /veh PLEKHG5 (11737974_s_at) / RFU LRRC4B (11730491_at) / Fold change /veh LRRC4B (11730491_at) / RFU GIMAP4 (11747438_a_at) / Fold change /veh GIMAP4 (11747438_a_at) / RFU KRT8 (11758183_x_at) / Fold change /veh KRT8 (11758183_x_at) / RFU CNN1 (11734310_a_at) / Fold change /veh CNN1 (11734310_a_at) / RFU VPS37D (11726825_at) / Fold change /veh VPS37D (11726825_at) / RFU C10orf10 (11716522_x_at) / Fold change /veh C10orf10 (11716522_x_at) / RFU KIR2DL2 /// KIR2DL4 /// KIR2DL5A /// KIR2DL5B /// KIR2DS1 /// KIR2DS2 /// KIR2DS3 /// KIR2DS4 /// KIR3DL3 /// KIR3DL3 /// KIR3DS1 (11738374_at) / Fold change /veh KIR2DL2 /// KIR2DL4 /// KIR2DL5A /// KIR2DL5B /// KIR2DS1 /// KIR2DS2 /// KIR2DS3 /// KIR2DS4 /// KIR3DL3 /// KIR3DL3 /// KIR3DS1 (11738374_at) / RFU C1QL1 (11718748_at) / Fold change /veh C1QL1 (11718748_at) / RFU TMPRSS4 (11747572_a_at) / Fold change /veh TMPRSS4 (11747572_a_at) / RFU HAMP (11756126_x_at) / Fold change /veh HAMP (11756126_x_at) / RFU RNFT2 (11725882_a_at) / Fold change /veh RNFT2 (11725882_a_at) / RFU NR4A2 (11747474_a_at) / Fold change /veh NR4A2 (11747474_a_at) / RFU ABCC12 (11746883_a_at) / Fold change /veh ABCC12 (11746883_a_at) / RFU TMEM136 (11760407_x_at) / Fold change /veh TMEM136 (11760407_x_at) / RFU CLDN22 /// WWC2 (11732394_at) / Fold change /veh CLDN22 /// WWC2 (11732394_at) / RFU HLA-DPB1 (11760878_x_at) / Fold change /veh HLA-DPB1 (11760878_x_at) / RFU SPINT1 (11716480_a_at) / Fold change /veh SPINT1 (11716480_a_at) / RFU GAP43 (11754022_s_at) / Fold change /veh GAP43 (11754022_s_at) / RFU A4GNT (11735810_at) / Fold change /veh A4GNT (11735810_at) / RFU PRB3 (11715151_x_at) / Fold change /veh PRB3 (11715151_x_at) / RFU TUBB4B (11761932_at) / Fold change /veh TUBB4B (11761932_at) / RFU CAPN14 (11732068_a_at) / Fold change /veh CAPN14 (11732068_a_at) / RFU TMCC2 (11721928_a_at) / Fold change /veh TMCC2 (11721928_a_at) / RFU IRGQ (11745062_a_at) / Fold change /veh IRGQ (11745062_a_at) / RFU FAM174B (11720279_a_at) / Fold change /veh FAM174B (11720279_a_at) / RFU TMPRSS4 (11748680_a_at) / Fold change /veh TMPRSS4 (11748680_a_at) / RFU FAM212B (11763350_a_at) / Fold change /veh FAM212B (11763350_a_at) / RFU PLEKHG5 (11743358_a_at) / Fold change /veh PLEKHG5 (11743358_a_at) / RFU ZSCAN30 (11745921_a_at) / Fold change /veh ZSCAN30 (11745921_a_at) / RFU CMKLR1 (11741424_a_at) / Fold change /veh CMKLR1 (11741424_a_at) / RFU LOC101060620 /// MAPK8IP1 (11723275_at) / Fold change /veh LOC101060620 /// MAPK8IP1 (11723275_at) / RFU SPTSSB (11747773_x_at) / Fold change /veh SPTSSB (11747773_x_at) / RFU PRSS12 (11739890_at) / Fold change /veh PRSS12 (11739890_at) / RFU BIN1 (11741810_x_at) / Fold change /veh BIN1 (11741810_x_at) / RFU WNT11 (11732464_a_at) / Fold change /veh WNT11 (11732464_a_at) / RFU C10orf10 (11716521_a_at) / Fold change /veh C10orf10 (11716521_a_at) / RFU C5orf56 (11738089_at) / Fold change /veh C5orf56 (11738089_at) / RFU CYB561 (11721691_x_at) / Fold change /veh CYB561 (11721691_x_at) / RFU ANKRD19P (11752326_a_at) / Fold change /veh ANKRD19P (11752326_a_at) / RFU OR2T12 /// OR2T33 /// OR2T8 (11738714_s_at) / Fold change /veh OR2T12 /// OR2T33 /// OR2T8 (11738714_s_at) / RFU VCAN (11748164_a_at) / Fold change /veh VCAN (11748164_a_at) / RFU JSRP1 (11732532_at) / Fold change /veh JSRP1 (11732532_at) / RFU KRTAP10-11 (11738290_x_at) / Fold change /veh KRTAP10-11 (11738290_x_at) / RFU MYO3A (11730013_a_at) / Fold change /veh MYO3A (11730013_a_at) / RFU EBF3 (11725865_a_at) / Fold change /veh EBF3 (11725865_a_at) / RFU CAMK2N1 (11719241_x_at) / Fold change /veh CAMK2N1 (11719241_x_at) / RFU C5orf56 (11738088_a_at) / Fold change /veh C5orf56 (11738088_a_at) / RFU OLFML3 (11715873_a_at) / Fold change /veh OLFML3 (11715873_a_at) / RFU LOC100653217 /// NTM (11731650_a_at) / Fold change /veh LOC100653217 /// NTM (11731650_a_at) / RFU MAPK11 (11762145_a_at) / Fold change /veh MAPK11 (11762145_a_at) / RFU FIZ1 (11724087_x_at) / Fold change /veh FIZ1 (11724087_x_at) / RFU OASL (11726364_x_at) / Fold change /veh OASL (11726364_x_at) / RFU SOX15 (11748057_x_at) / Fold change /veh SOX15 (11748057_x_at) / RFU CD79A (11719716_a_at) / Fold change /veh CD79A (11719716_a_at) / RFU HIST1H1D (11736915_at) / Fold change /veh HIST1H1D (11736915_at) / RFU CASKIN2 (11723855_a_at) / Fold change /veh CASKIN2 (11723855_a_at) / RFU LOC730098 (11760151_x_at) / Fold change /veh LOC730098 (11760151_x_at) / RFU OR4N2 (11742367_at) / Fold change /veh OR4N2 (11742367_at) / RFU PRRT2 (11749266_a_at) / Fold change /veh PRRT2 (11749266_a_at) / RFU SNX32 (11753110_a_at) / Fold change /veh SNX32 (11753110_a_at) / RFU CDHR5 (11726645_a_at) / Fold change /veh CDHR5 (11726645_a_at) / RFU RCAN1 (11760418_a_at) / Fold change /veh RCAN1 (11760418_a_at) / RFU FAM167A (11723789_a_at) / Fold change /veh FAM167A (11723789_a_at) / RFU FAM26E (11764081_at) / Fold change /veh FAM26E (11764081_at) / RFU ISYNA1 (11749810_s_at) / Fold change /veh ISYNA1 (11749810_s_at) / RFU ACY1 (11761880_at) / Fold change /veh ACY1 (11761880_at) / RFU 11764098_at / Fold change /veh 11764098_at / RFU SAMD14 (11745864_x_at) / Fold change /veh SAMD14 (11745864_x_at) / RFU NPB (11741838_a_at) / Fold change /veh NPB (11741838_a_at) / RFU TMPRSS6 (11731388_a_at) / Fold change /veh TMPRSS6 (11731388_a_at) / RFU KRTAP10-2 (11738614_at) / Fold change /veh KRTAP10-2 (11738614_at) / RFU ARHGAP8 /// PRR5-ARHGAP8 (11727945_x_at) / Fold change /veh ARHGAP8 /// PRR5-ARHGAP8 (11727945_x_at) / RFU KRTAP5-7 /// NADSYN1 (11734609_at) / Fold change /veh KRTAP5-7 /// NADSYN1 (11734609_at) / RFU RASL12 (11751679_a_at) / Fold change /veh RASL12 (11751679_a_at) / RFU CDKN2B (11736163_a_at) / Fold change /veh CDKN2B (11736163_a_at) / RFU PRF1 (11729649_at) / Fold change /veh PRF1 (11729649_at) / RFU, ZNF638 /// ZNF638-IT1 / Fold change vs veh, ZNF638 /// ZNF638-IT1 / RFU, PANK3 / Fold change vs veh, PANK3 / RFU, SH3YL1 / Fold change vs veh, SH3YL1 / RFU, ZEB2 / Fold change vs veh, ZEB2 / RFU, NRIP1 / Fold change vs veh, NRIP1 / RFU, PTTG1IP / Fold change vs veh, PTTG1IP / RFU, CAPN2 / Fold change vs veh, CAPN2 / RFU, MED14 / Fold change vs veh, MED14 / RFU, SNORA58 / Fold change vs veh, SNORA58 / RFU, C1orf63 / Fold change vs veh, C1orf63 / RFU, LRRFIP1 / Fold change vs veh, LRRFIP1 / RFU, NDUFAF7 / Fold change vs veh, NDUFAF7 / RFU, SLC12A2 / Fold change vs veh, SLC12A2 / RFU, IBTK / Fold change vs veh, IBTK / RFU, ESF1 / Fold change vs veh, ESF1 / Fold change vs veh, TMEM50B / RFU, TAOK1 / Fold change vs veh, TAOK1 / RFU, ACBD3 / Fold change vs veh, ACBD3 / RFU, TMA16 / Fold change vs veh, TMA16 / RFU, RWDD3 / Fold change vs veh, RWDD3 / RFU, BCAT1 / Fold change vs veh, BCAT1 / RFU, EDEM3 / Fold change vs veh, EDEM3 / RFU, TMEM33 / Fold change vs veh, TMEM33 / RFU, WDR75 / Fold change vs veh, WDR75 / RFU, AHCTF1 / Fold change vs veh, AHCTF1 / RFU, TFRC / Fold change vs veh, TFRC / RFU, ZDHHC17 / Fold change vs veh, ZDHHC17 / RFU, NOM1 / Fold change vs veh, NOM1 / RFU, ARL8B / Fold change vs veh, ARL8B / RFU, ZBTB11 / Fold change vs veh, ZBTB11 / RFU, TAMM41 / Fold change vs veh, TAMM41 / RFU, KIAA1704 /// LOC100996395 / Fold change vs veh, KIAA1704 /// LOC100996395 / RFU, ING1 / Fold change vs veh, ING1 / RFU, TRMT61B / Fold change vs veh, TRMT61B / RFU, FUBP3 / Fold change vs veh, FUBP3 / RFU, TP53 / Fold change vs veh, TP53 / RFU, TNKS2 / Fold change vs veh, TNKS2 / RFU, ZFP14 / Fold change vs veh, ZFP14 / RFU, ACTR2 / Fold change vs veh, ACTR2 / RFU, PPP3R1 / Fold change vs veh, PPP3R1 / RFU, PIK3R1 / Fold change vs veh, PIK3R1 / RFU, HNRNPA1 / Fold change vs veh, HNRNPA1 / RFU, RNF170 / Fold change vs veh, RNF170 / RFU, ZNF28 / Fold change vs veh, ZNF28 / RFU, RNGTT / Fold change vs veh, RNGTT / RFU, OGT / Fold change vs veh, OGT / RFU, BRD1 / Fold change vs veh, BRD1 / RFU, MARS / Fold change vs veh, MARS / RFU, ZNF655 / Fold change vs veh, ZNF655 / RFU, FAHD1 / Fold change vs veh, FAHD1 / RFU, BDP1 / Fold change vs veh, BDP1 / RFU, LRRCC1 / Fold change vs veh, LRRCC1 / RFU, ARID1A / Fold change vs veh, ARID1A / RFU, ZNF146 / Fold change vs veh, ZNF146 / RFU, ZNF330 / Fold change vs veh, ZNF330 / RFU, GPN3 / Fold change vs veh, GPN3 / RFU, C9orf123 / Fold change vs veh, C9orf123 / RFU, N4BP2L2 / Fold change vs veh, N4BP2L2 / RFU, ARFIP1 / Fold change vs veh, ARFIP1 / RFU, FAM179B / Fold change vs veh, FAM179B / RFU, BCL10 / Fold change vs veh, BCL10 / RFU, UHRF1BP1L / Fold change vs veh, UHRF1BP1L / RFU, BET1 / Fold change vs veh, BET1 / RFU, CNOT2 / Fold change vs veh, CNOT2 / RFU, ZNF268 / Fold change vs veh, ZNF268 / Fold change vs veh, ZNF507 / RFU, DGCR2 / Fold change vs veh, DGCR2 / RFU, WDSUB1 / Fold change vs veh, WDSUB1 / Fold change vs veh, HSP90B1 /// MIR3652 / RFU, ADSS / Fold change vs veh, ADSS / RFU, GK / Fold change vs veh, GK / RFU, ZNF148 / Fold change vs veh, ZNF148 / RFU, TAF9 / Fold change vs veh, TAF9 / RFU, SLC1A5 / Fold change vs veh, SLC1A5 / RFU, SLMO2 / Fold change vs veh, SLMO2 / RFU, ABCC4 / Fold change vs veh, ABCC4 / RFU, LOC101060439 /// RAP1B / Fold change vs veh, LOC101060439 /// RAP1B / RFU, RFX7 / Fold change vs veh, RFX7 / RFU, GTPBP10 / Fold change vs veh, GTPBP10 / RFU, CNEP1R1 / Fold change vs veh, CNEP1R1 / RFU, BIVM-ERCC5 /// ERCC5 / Fold change vs veh, BIVM-ERCC5 /// ERCC5 / RFU, ILF3 / Fold change vs veh, ILF3 / RFU 11762660_at / Fold change /veh 11762660_at / RFU VCAN (11757783_s_at) / Fold change /veh VCAN (11757783_s_at) / RFU DDX43 (11728927_at) / Fold change /veh DDX43 (11728927_at) / RFU KRT8 (11758188_x_at) / Fold change /veh KRT8 (11758188_x_at) / RFU NKD1 (11759106_at) / Fold change /veh NKD1 (11759106_at) / RFU SRD5A1 (11742802_a_at) / Fold change /veh SRD5A1 (11742802_a_at) / RFU TPSAB1 /// TPSB2 (11721975_s_at) / Fold change /veh TPSAB1 /// TPSB2 (11721975_s_at) / RFU GSTM3 (11746129_a_at) / Fold change /veh GSTM3 (11746129_a_at) / RFU IL23R (11737362_x_at) / Fold change /veh IL23R (11737362_x_at) / RFU TMEM51 (11727254_a_at) / Fold change /veh TMEM51 (11727254_a_at) / RFU PIWIL2 (11732686_x_at) / Fold change /veh PIWIL2 (11732686_x_at) / RFU ORM1 (11744905_x_at) / Fold change /veh ORM1 (11744905_x_at) / RFU CCDC152 (11743942_at) / Fold change /veh CCDC152 (11743942_at) / RFU ECM1 (11717891_a_at) / Fold change /veh ECM1 (11717891_a_at) / RFU IL23R (11748794_a_at) / Fold change /veh IL23R (11748794_a_at) / RFU TNFAIP8L3 (11732012_x_at) / Fold change /veh TNFAIP8L3 (11732012_x_at) / RFU MBOAT4 (11741988_at) / Fold change /veh MBOAT4 (11741988_at) / RFU 11764193_at / Fold change /veh 11764193_at / RFU TMEM53 (11763286_at) / Fold change /veh TMEM53 (11763286_at) / RFU MAGEB2 (11727129_at) / Fold change /veh MAGEB2 (11727129_at) / RFU TMEM200A (11744735_a_at) / Fold change /veh TMEM200A (11744735_a_at) / RFU CCDC152 (11751479_a_at) / Fold change /veh CCDC152 (11751479_a_at) / RFU FAM211A (11726209_a_at) / Fold change /veh FAM211A (11726209_a_at) / RFU RGS16 (11746705_a_at) / Fold change /veh RGS16 (11746705_a_at) / RFU VCAN (11755009_s_at) / Fold change /veh VCAN (11755009_s_at) / RFU RHOB (11743442_s_at) / Fold change /veh RHOB (11743442_s_at) / RFU RGS16 (11720943_a_at) / Fold change /veh RGS16 (11720943_a_at) / RFU RGS16 (11720944_at) / Fold change /veh RGS16 (11720944_at) / RFU, VPS4B / Fold change vs veh, VPS4B / RFU, CREB1 / Fold change vs veh, CREB1 / RFU, DNAJC13 / Fold change vs veh, DNAJC13 / RFU, GNAQ / Fold change vs veh, GNAQ / RFU, CDK5R1 / Fold change vs veh, CDK5R1 / RFU, ZRANB3 / Fold change vs veh, ZRANB3 / RFU, CUL4A / Fold change vs veh, CUL4A / RFU, CCNY / Fold change vs veh, CCNY / RFU, UFL1 / Fold change vs veh, UFL1 / RFU, COG3 / Fold change vs veh, COG3 / RFU, DIAPH2 / Fold change vs veh, DIAPH2 / RFU, SKA2 / Fold change vs veh, SKA2 / RFU, AFF3 / Fold change vs veh, AFF3 / RFU, LMF1 / Fold change vs veh, LMF1 / RFU, IPO11 / Fold change vs veh, IPO11 / RFU, DFFB / Fold change vs veh, DFFB / RFU, FOXP1 / Fold change vs veh, FOXP1 / RFU, CARD8 / Fold change vs veh, CARD8 / RFU, STRN3 / Fold change vs veh, STRN3 / RFU, ADK / Fold change vs veh, ADK / RFU, RASSF2 / Fold change vs veh, RASSF2 / RFU, WIPF1 / Fold change vs veh, WIPF1 / RFU, LARP1B / Fold change vs veh, LARP1B / RFU, RASA1 / Fold change vs veh, RASA1 / RFU, RB1 / Fold change vs veh, RB1 / RFU, PPFIA1 / Fold change vs veh, PPFIA1 / RFU, MAT2A / Fold change vs veh, MAT2A / RFU, CCT5 / Fold change vs veh, CCT5 / RFU, WDR92 / Fold change vs veh, WDR92 / RFU, CUX1 / Fold change vs veh, CUX1 / RFU, TTC7A / Fold change vs veh, TTC7A / RFU, TMEM135 / Fold change vs veh, TMEM135 / RFU, DEPTOR / Fold change vs veh, DEPTOR / RFU, CPM / Fold change vs veh, CPM / RFU, DNAJB6 / Fold change vs veh, DNAJB6 / RFU, CACNA2D3 / Fold change vs veh, CACNA2D3 / RFU, DTX4 / Fold change vs veh, DTX4 / RFU, TFCP2 / Fold change vs veh, TFCP2 / RFU, GMCL1 /// GMCL1P1 / Fold change vs veh, GMCL1 /// GMCL1P1 / RFU, AEBP2 / Fold change vs veh, AEBP2 / RFU, SNHG1 /// SNORD22 /// SNORD25 /// SNORD26 /// SNORD27 /// SNORD28 /// SNORD29 /// SNORD31 / Fold change vs veh, SNHG1 /// SNORD22 /// SNORD25 /// SNORD26 /// SNORD27 /// SNORD28 /// SNORD29 /// SNORD31 / Fold change (Aza/veh), C12orf56 (ProbeSet 11735607_a_at) / Fold change (ACY-1035/veh), C12orf56 (ProbeSet 11735607_a_at) / Fold change (Aza/veh), FGFR1OP (ProbeSet 11751329_s_at) / Fold change (ACY-1035/veh), FGFR1OP (ProbeSet 11751329_s_at) / Fold change (Aza/veh), VPS36 (ProbeSet 11739960_a_at) / Fold change (ACY-1035/veh), VPS36 (ProbeSet 11739960_a_at) / RFU SYPL1 (11715823_x_at) / Fold change /veh SYPL1 (11715823_x_at) / RFU IGFBP7 (11715501_s_at) / Fold change /veh IGFBP7 (11715501_s_at) / RFU REEP3 (11722064_at) / Fold change /veh REEP3 (11722064_at) / RFU IGLL1 (11728026_x_at) / Fold change /veh IGLL1 (11728026_x_at): dose or concentration left out as unconfirmed
Conditions: ProbeSet 11753616_s_at; LIST B

In the case of `Nc1ccc(-c2cccs2)cc1NC(=O)c1ccc2c(c1)cc(C1CC1)n2CCN1CCOCC1` [ACY-1035], the “Fold change vs veh, ARL8B” value is reported as 0.90.
